pIC50: −log10 of the molar value.
Tested on: HOP-62 complex spheroids with HUVEC/MSC, viability
Assay: Anticancer human tumor HOP-62 cell line growth inhibition [RAS];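 further: spheroids exposed to agents for seven days before readout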;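 on viability, T/C: 100% = DMSO vehicle control viability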
Settings: for pIC50: curve of first compound; for viability, T/C: stronger effect = lower value
Procedure, shortened: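 Multi-cell-type spheroids: tumor cells plus HUVEC endothelial cells and mesenchymal stem cells. RAS-pathway inhibitors were combined with targeted agents, each dosed in half-log steps down from clinical Cmax, or from 10 microM when Cmax was unknown.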

[1] = second compound 0.00316 µM, first compound 0.0316 µM
[2] = second compound 0.00316 µM, first compound 0.1 µM
[3] = second compound 0.00316 µM, first compound 0.316 µM
[4] = second compound 0.00316 µM, first compound 1 µM
[5] = second compound 0.00316 µM, first compound 3.16 µM
[6] = second compound 0.00316 µM, first compound 10 µM
[7] = second compound 0.01 µM, first compound 0.0316 µM
[8] = second compound 0.01 µM, first compound 0.1 µM
[9] = second compound 0.01 µM, first compound 0.316 µM
[10] = second compound 0.01 µM, first compound 1 µM
[11] = second compound 0.01 µM, first compound 3.16 µM
[12] = second compound 0.01 µM, first compound 10 µM
[13] = second compound 0.0316 µM, first compound 0.0316 µM
[14] = second compound 0.0316 µM, first compound 0.1 µM
[15] = second compound 0.0316 µM, first compound 0.316 µM
[16] = second compound 0.0316 µM, first compound 1 µM
[17] = second compound 0.0316 µM, first compound 3.16 µM
[18] = second compound 0.0316 µM, first compound 10 µM
[19] = second compound 0.1 µM, first compound 0.0316 µM
[20] = second compound 0.1 µM, first compound 0.1 µM
[21] = second compound 0.1 µM, first compound 0.316 µM
[22] = second compound 0.1 µM, first compound 1 µM
[23] = second compound 0.1 µM, first compound 3.16 µM
[24] = second compound 0.1 µM, first compound 10 µM
[25] = second compound 0.316 µM, first compound 0.0316 µM
[26] = second compound 0.316 µM, first compound 0.1 µM
[27] = second compound 0.316 µM, first compound 0.316 µM
[28] = second compound 0.316 µM, first compound 1 µM
[29] = second compound 0.316 µM, first compound 3.16 µM
[30] = second compound 0.316 µM, first compound 10 µM
[31] = second compound 1 µM, first compound 0.0316 µM
[32] = second compound 1 µM, first compound 0.1 µM
[33] = second compound 1 µM, first compound 0.316 µM
[34] = second compound 1 µM, first compound 1 µM
[35] = second compound 1 µM, first compound 3.16 µM
[36] = second compound 1 µM, first compound 10 µM

CCC(CC)c1cc(NC2CCC(N)C2)n2nccc2n1 (stereo unspecified) + C=CC(=O)N1CCN(c2nc(OCC3CCCN3C)nc3c(F)c(-c4nc(N)cc(C)c4C(F)(F)F)c(Cl)cc23)C(C)C1
pIC50 (second compound 0.00316 µM): 5.84 | pIC50 (second compound 0.01 µM): 5.88 | pIC50 (second compound 0.0316 µM): 5.84 | pIC50 (second compound 0.1 µM): 5.84 | pIC50 (second compound 0.316 µM): 5.87 | pIC50 (second compound 1 µM): 5.86 | viability, T/C [1]: 82.5% | viability, T/C [2]: 79.4% | viability, T/C [3]: 88.6% | viability, T/C [4]: 71.8% | viability, T/C [5]: 2.08% | viability, T/C [6]: 1.07% | viability, T/C [7]: 77.7% | viability, T/C [8]: 69.6% | viability, T/C [9]: 70.3% | viability, T/C [10]: 65.5% | viability, T/C [11]: 1.41% | viability, T/C [12]: 0.46% | viability, T/C [13]: 75.2% | viability, T/C [14]: 68.4% | viability, T/C [15]: 76.5% | viability, T/C [16]: 73.2% | viability, T/C [17]: 0.98% | viability, T/C [18]: 0.34% | viability, T/C [19]: 66.2% | viability, T/C [20]: 70.5% | viability, T/C [21]: 74.6% | viability, T/C [22]: 73.5% | viability, T/C [23]: 2.62% | viability, T/C [24]: 0.16% | viability, T/C [25]: 70.7% | viability, T/C [26]: 68.9% | viability, T/C [27]: 71.4% | viability, T/C [28]: 68.2% | viability, T/C [29]: 0.89% | viability, T/C [30]: 0.5% | viability, T/C [31]: 62.5% | viability, T/C [32]: 69.9% | viability, T/C [33]: 70.9% | viability, T/C [34]: 73.4% | viability, T/C [35]: 1.28% | viability, T/C [36]: 0.62%

Cc1nc(N2CCC3(CC2)COC(C)C3N)c(CO)nc1Sc1ccnc(N)c1Cl (stereo unspecified) + C=CC(=O)N1CCN(c2nc(OCC3CCCN3C)nc3c(F)c(-c4nc(N)cc(C)c4C(F)(F)F)c(Cl)cc23)C(C)C1
pIC50 (second compound 0.00316 µM): 6.86 | pIC50 (second compound 0.01 µM): 7.14 | pIC50 (second compound 0.0316 µM): 7.36 | pIC50 (second compound 0.1 µM): 7.28 | pIC50 (second compound 0.316 µM): 7.25 | pIC50 (second compound 1 µM): > 7.50 | viability, T/C [1]: 68.6% | viability, T/C [2]: 52.6% | viability, T/C [3]: 40.3% | viability, T/C [4]: 28.7% | viability, T/C [5]: 14.1% | viability, T/C [6]: 13.8% | viability, T/C [7]: 58.6% | viability, T/C [8]: 46.1% | viability, T/C [9]: 32.8% | viability, T/C [10]: 21.3% | viability, T/C [11]: 10.6% | viability, T/C [12]: 8.87% | viability, T/C [13]: 52% | viability, T/C [14]: 44.8% | viability, T/C [15]: 30.5% | viability, T/C [16]: 17.4% | viability, T/C [17]: 13.7% | viability, T/C [18]: 9.06% | viability, T/C [19]: 56.5% | viability, T/C [20]: 41.5% | viability, T/C [21]: 29.1% | viability, T/C [22]: 19.5% | viability, T/C [23]: 10.4% | viability, T/C [24]: 9.33% | viability, T/C [25]: 54.8% | viability, T/C [26]: 44.8% | viability, T/C [27]: 31.1% | viability, T/C [28]: 15.5% | viability, T/C [29]: 12.1% | viability, T/C [30]: 10.7% | viability, T/C [31]: 49.6% | viability, T/C [32]: 37.8% | viability, T/C [33]: 26.1% | viability, T/C [34]: 15.1% | viability, T/C [35]: 11.7% | viability, T/C [36]: 8.55%

NC1c2ccccc2OC12CCN(c1cnc3c(N4CCCc5ncccc54)n[nH]c3n1)CC2 (stereo unspecified) + C=CC(=O)N1CCN(c2nc(OCC3CCCN3C)nc3c(F)c(-c4nc(N)cc(C)c4C(F)(F)F)c(Cl)cc23)C(C)C1
pIC50 (second compound 0.00316 µM): > 7.50 | pIC50 (second compound 0.01 µM): > 7.50 | pIC50 (second compound 0.0316 µM): > 7.50 | pIC50 (second compound 0.1 µM): > 7.50 | pIC50 (second compound 0.316 µM): > 7.50 | pIC50 (second compound 1 µM): > 7.50 | viability, T/C [1]: 45.5% | viability, T/C [2]: 30.2% | viability, T/C [3]: 15% | viability, T/C [4]: 13.9% | viability, T/C [5]: 9.04% | viability, T/C [6]: 8.74% | viability, T/C [7]: 34.9% | viability, T/C [8]: 22.6% | viability, T/C [9]: 11.9% | viability, T/C [10]: 11.9% | viability, T/C [11]: 9.09% | viability, T/C [12]: 10.8% | viability, T/C [13]: 30.6% | viability, T/C [14]: 18.5% | viability, T/C [15]: 12.2% | viability, T/C [16]: 10.9% | viability, T/C [17]: 10.3% | viability, T/C [18]: 7.74% | viability, T/C [19]: 30.8% | viability, T/C [20]: 15.1% | viability, T/C [21]: 11% | viability, T/C [22]: 10.3% | viability, T/C [23]: 9.12% | viability, T/C [24]: 8.09% | viability, T/C [25]: 28.3% | viability, T/C [26]: 14.4% | viability, T/C [27]: 11.2% | viability, T/C [28]: 10.5% | viability, T/C [29]: 6.82% | viability, T/C [30]: 8.51% | viability, T/C [31]: 29.5% | viability, T/C [32]: 15.3% | viability, T/C [33]: 10.8% | viability, T/C [34]: 9.35% | viability, T/C [35]: 10.7% | viability, T/C [36]: 5.7%

From PubChem BioAssay AID2060892 (Molecular Pharmacology Branch, DTP, NCI, 2025)
